Among the data in ChEMBL document CHEMBL1137039, “Synthesis and structure-activity relationships of uracil derived human GnRH receptor antagonists: (R)-3-[2-(2-amino)phenethyl]-1-(2,6-difluorobenzyl)-6-methyluracils containing a substituted thiophene or thiazole at C-5” (Bioorg Med Chem Lett, 2004) are CLint scaled and Ki values, retold here.

The CLint scaled is the capacity of the preparation to metabolise the compound, expressed as a volume cleared per time. Read a low CLint scaled as slow turnover. The Ki is a dissociation constant, usually derived from enzyme kinetics or from competition with a known ligand. Low values mean higher affinity, high ones lower affinity.

System in the first data set: not listed separately
The data set can be described thus: In vitro intrinsic clearance after incubation with human liver microsomes (HLM). In kind it is ADME, Microsome.
In turn, `COc1cccc(-c2c(C)n(Cc3c(F)cccc3F)c(=O)n(C[C@@H](C)N(C)Cc3ccccn3)c2=O)c1` registered a CLint scaled of 1700 mL/min/kg. The same measure, in the same setting: the figure for `Cc1c(-c2csc(-c3ccc(Cl)cc3)n2)c(=O)n(C[C@H](N)c2ccccc2)c(=O)n1Cc1c(F)cccc1F` is 46 mL/min/kg. Same read-out and setting: the result for `Cc1ccc(-c2nc(-c3c(C)n(Cc4c(F)cccc4F)c(=O)n(C[C@H](N)c4ccccc4)c3=O)cs2)cc1` reads 36 mL/min/kg.

The target in another data set is T1, Gonadotropin-releasing hormone receptor (Homo sapiens, UniProt P30968).
T1 sequence (P30968 whole entry): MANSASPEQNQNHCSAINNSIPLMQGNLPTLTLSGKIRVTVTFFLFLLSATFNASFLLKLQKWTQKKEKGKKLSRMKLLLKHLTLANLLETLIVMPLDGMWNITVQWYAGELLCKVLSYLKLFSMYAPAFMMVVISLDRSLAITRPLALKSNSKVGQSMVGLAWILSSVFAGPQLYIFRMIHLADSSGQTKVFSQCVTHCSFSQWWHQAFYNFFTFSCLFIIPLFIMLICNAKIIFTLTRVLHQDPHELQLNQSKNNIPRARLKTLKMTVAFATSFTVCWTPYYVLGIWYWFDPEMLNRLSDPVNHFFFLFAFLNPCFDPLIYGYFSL
Briefly: Binding affinity towards cloned human Gonadotropin-releasing hormone receptor expressed in RBL cells was determined by using [125I]GnRH as radioligand. In kind it is cell-based.
Take `Cc1c(-c2csc(-c3ccc(Cl)cc3)n2)c(=O)n(C[C@H](N)c2ccccc2)c(=O)n1Cc1c(F)cccc1F`: the affinity corresponds to a Ki of 15 nM. This lies in the double-digit nanomolar range. On to `Cc1c(-c2ccc(Cl)cc2)c(=O)n(C[C@H](N)c2ccccc2)c(=O)n1Cc1c(F)cccc1F`, for which the affinity corresponds to a Ki of 14 nM. Still for that read-out and setting: the result for `Cc1c(-c2csc(Nc3ccccc3)n2)c(=O)n(C[C@H](N)c2ccccc2)c(=O)n1Cc1c(F)cccc1F` reads 70 nM; that for `CCOC(=O)Nc1ccc(-c2nc(-c3c(C)n(Cc4c(F)cccc4F)c(=O)n(C[C@H](N)c4ccccc4)c3=O)cs2)cc1`, 7 nM; that for `Cc1c(-c2csc(-c3ccccc3Cl)n2)c(=O)n(C[C@H](N)c2ccccc2)c(=O)n1Cc1c(F)cccc1F`, 30 nM. Same read-out and setting: the result for `Cc1c(-c2cccs2)c(=O)n(C[C@H](N)c2ccccc2)c(=O)n1Cc1c(F)cccc1F` reads 10 nM.

Take `Cc1c(-c2csc(NCc3ccccc3)n2)c(=O)n(C[C@H](N)c2ccccc2)c(=O)n1Cc1c(F)cccc1F`: the Ki came out at 35 nM. This Ki is about 3.5-fold higher than that of the compound before. Still for that read-out and setting: the figure for `Cc1ccc(Nc2nc(-c3c(C)n(Cc4c(F)cccc4F)c(=O)n(C[C@H](N)c4ccccc4)c3=O)cs2)cc1` is 49 nM; for `Cc1c(-c2csc(-c3ccc(C(F)(F)F)cc3)n2)c(=O)n(C[C@H](N)c2ccccc2)c(=O)n1Cc1c(F)cccc1F` it is 47 nM.

`Cc1c(-c2csc(Nc3ccc([N+](=O)[O-])cc3)n2)c(=O)n(C[C@H](N)c2ccccc2)c(=O)n1Cc1c(F)cccc1F` displayed a Ki of 160 nM. This Ki is about 3.4-fold higher than that of the compound before. Same read-out and setting: the figure for `Cc1c(-c2csc(N3CCOCC3)n2)c(=O)n(C[C@H](N)c2ccccc2)c(=O)n1Cc1c(F)cccc1F` is 1500 nM; for `Cc1ccc(Nc2nc(-c3c(C)n(Cc4c(F)cccc4F)c(=O)n(C[C@H](N)c4ccccc4)c3=O)cs2)c(C)c1` it is 130 nM; for `Cc1ccccc1Nc1nc(-c2c(C)n(Cc3c(F)cccc3F)c(=O)n(C[C@H](N)c3ccccc3)c2=O)cs1` it is 210 nM. Still for that read-out and setting: the result for `Cc1c(-c2csc(-c3cccc(C(F)(F)F)c3)n2)c(=O)n(C[C@H](N)c2ccccc2)c(=O)n1Cc1c(F)cccc1F` reads 150 nM. Take `Cc1nc(-c2c(C)n(Cc3c(F)cccc3F)c(=O)n(C[C@H](N)c3ccccc3)c2=O)cs1`: the affinity, expressed as Ki, was 120 nM. Same read-out and setting: the figure for `Cc1ccc(-c2nc(-c3c(C)n(Cc4c(F)cccc4F)c(=O)n(C[C@H](N)c4ccccc4)c3=O)cs2)cc1` is 18 nM; for `Cc1c(-c2ccc(Cl)s2)c(=O)n(C[C@H](N)c2ccccc2)c(=O)n1Cc1c(F)cccc1F` it is 2 nM. The same measure, in the same setting: the result for `COc1ccc(Nc2nc(-c3c(C)n(Cc4c(F)cccc4F)c(=O)n(C[C@H](N)c4ccccc4)c3=O)cs2)cc1OC` reads 33 nM; that for `Cc1c(-c2csc(-c3ccc4c(c3)CCO4)n2)c(=O)n(C[C@H](N)c2ccccc2)c(=O)n1Cc1c(F)cccc1F`, 20 nM. Turning to `Cc1c(-c2csc(Cc3ccccc3)n2)c(=O)n(C[C@H](N)c2ccccc2)c(=O)n1Cc1c(F)cccc1F`, affinity was put at a Ki of 9 nM. On the same count and under the same terms, the result for `COc1ccc(Nc2nc(-c3c(C)n(Cc4c(F)cccc4F)c(=O)n(C[C@H](N)c4ccccc4)c3=O)cs2)cc1` reads 42 nM; that for `Cc1ccc(-c2c(C)n(Cc3c(F)cccc3F)c(=O)n(C[C@H](N)c3ccccc3)c2=O)s1`, 3 nM. Still for that read-out and setting: the figure for `CCNc1nc(-c2c(C)n(Cc3c(F)cccc3F)c(=O)n(C[C@H](N)c3ccccc3)c2=O)cs1` is 270 nM; for `COc1ccccc1Nc1nc(-c2c(C)n(Cc3c(F)cccc3F)c(=O)n(C[C@H](N)c3ccccc3)c2=O)cs1` it is 130 nM; for `Cc1c(-c2csc(N)n2)c(=O)n(C[C@H](N)c2ccccc2)c(=O)n1Cc1c(F)cccc1F` it is 3000 nM.

In turn, `Cc1c(-c2csc(-c3ccc(C(C)(C)C)cc3)n2)c(=O)n(C[C@H](N)c2ccccc2)c(=O)n1Cc1c(F)cccc1F` displayed a Ki of 500 nM. Compared with the last compound, the Ki is about 6-fold lower.

Regarding `Cc1c(-c2csc(N(C)c3ccccc3)n2)c(=O)n(C[C@H](N)c2ccccc2)c(=O)n1Cc1c(F)cccc1F`, the Ki was 34 nM. Same read-out and setting: the result for `Cc1ccc(-c2nc(-c3c(C)n(Cc4c(F)cccc4F)c(=O)n(C[C@H](N)c4ccccc4)c3=O)cs2)cc1F` reads 49 nM; that for `Cc1c(-c2csc(-c3ccccc3)n2)c(=O)n(C[C@H](N)c2ccccc2)c(=O)n1Cc1c(F)cccc1F`, 26 nM; that for `Cc1c(-c2csc(-c3ccc(F)cc3)n2)c(=O)n(C[C@H](N)c2ccccc2)c(=O)n1Cc1c(F)cccc1F`, 42 nM.
